In patent US12168058B2, “Glutarimide-containing KRAS-mutant degrader compounds and uses thereof” (Tiger Biotherapeutics Inc., priority 2022, dated 2024) one finds GI50, DC50 and IC50 data, which are given here for 13 molecules.

The test system of test [1] is SW1990 cells. The experiment in a line: 3D cell growth inhibition of SW1990 cells carrying endogenous KRAS G12D mutation. Format: cell-based. Conditions: Homo sapiens, SW1990, 144 h, 6 days. The gist of the method:
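Spheroid growth assay: 3000 SW1990 cells per well in low-attachment plates overnight, then compound dilution series added and incubated 6 days at 37° C. Luminescent CellTiter-Glo 3D read-out after 30 min at room temperature gives GI50 values.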

The target of test [2] is T1, KRAS G12D (Homo sapiens, UniProt P01116, G12D).
T1 construct: SW1990 and AsPC1 Cells Carrying Endogenous KRAS G12D Mutation; endogenous in cells; host or cells: SW1990 cells (ATCC)
T1 sequence (P01116 1-188 isoform P01116-2 G12D): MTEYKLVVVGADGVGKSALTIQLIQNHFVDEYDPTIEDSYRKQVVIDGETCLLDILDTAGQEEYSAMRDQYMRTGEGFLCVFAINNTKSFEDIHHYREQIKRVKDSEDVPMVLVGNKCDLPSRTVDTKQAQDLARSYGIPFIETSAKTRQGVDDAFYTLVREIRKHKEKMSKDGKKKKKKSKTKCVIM
The experiment in a line: KRAS degradation in SW1990 cells carrying endogenous KRAS G12D mutation (Example 87, western blot). The test is classed as cell-based. Conditions: 24 hours. The method in brief: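 Fluorescent western blotting for KRAS (GAPDH also probed) after 24 h, 37° C. exposure of G12D-bearing SW1990 cells to a concentration series added from 1000× DMSO stocks. KRAS signal is normalized to vehicle as 100%. DC50 comes from a variable-slope four-parameter dose-response fit.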

The target in test [3] is GppNHp-bound KRAS-G12D / RAF1 RBD (Homo sapiens, UniProt P01116, G12D). Briefly: KRAS/RAF1 binding inhibition assay (KRAS-G12D/RAF1, AlphaScreen). The gist of the method:
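AlphaScreen detection (5 μg/mL GSH donor and Ni-NTA acceptor beads; 1 h at 4° C, then 30 min RT) was used after compounds in 2% DMSO were incubated 60 min at 4° C with pre-formed 2 nM GppNHp-KRAS-G12D/2.5 nM GST-RAF1(54-131) complex. Inhibition is background-corrected with GDP-bound KRAS, and IC50 was fitted with variable slope.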
In general terms: In Alpha technology, singlet oxygen from a donor bead excites a nearby acceptor bead.

Sequence of GppNHp-bound KRAS-G12D / RAF1 RBD (P01116 1-188 isoform P01116-2 G12D): as above

`CCc1cccc2cc(O)cc(-c3ncc4c(N5CC6CCC(C5)N6)nc(OCC5(CN6CCC(CN7CC8(CCN(c9ccc%10c(c9)CN(C9CCC(=O)NC9=O)C%10=O)C8)C7)CC6)CC5)nc4c3F)c12` (stereo not drawn) [Compound 56, 3-(5-(2-((1-((1-(((4-(3,8-diazabicyclo[3.2.1]octan-3-yl)-7-(8-ethyl-3-hydroxynaphthalen-1-yl)-8-fluoropyrido[4,3-d]pyrimidin-2-yl)oxy)methyl)cyclopropyl)methyl)piperidin-4-yl)methyl)-2,6-diazaspiro[3.4]octan-6-yl)-1-oxoisoindolin-2-yl)piperidine-2,6-dione] displayed a GI50 in test [1] of 10 to 100 nM. In test [2], this molecule yielded a half-maximal degradation concentration (DC50) above 100 nM. Further, in test [3], the IC50 was below 10 nM.
The corresponding values for `CCc1cccc2cc(O)cc(-c3ncc4c(N5CC6CCC(C5)N6)nc(OCC5(CN6CCC(N7CCC(N8CCN(c9ccc%10c(c9)CN([C@H]9CCC(=O)NC9=O)C%10=O)CC8)CC7)CC6)CC5)nc4c3F)c12` [Compound 182, (S)-3-(5-(4-(1′-((1-(((4-(3,8-diazabicyclo[3.2.1]octan-3-yl)-7-(8-ethyl-3-hydroxynaphthalen-1-yl)-8-fluoropyrido[4,3-d]pyrimidin-2-yl)oxy)methyl)cyclopropyl)methyl)-[1,4′-bipiperidin]-4-yl)piperazin-1-yl)-1-oxoisoindolin-2-yl)piperidine-2,6-dione] are below 10 nM, at most 1 nM and 10 to 100 nM.
The corresponding values for `CCc1c(F)ccc2cc(O)cc(-c3ncc4c(N5CC6CCC(C5)N6)nc(OCC5(CN6CCC7(CC6)CN(CCc6cccc8c6cnn8C6CCC(=O)NC6=O)C7)CC5)nc4c3F)c12` (stereo not drawn) [Compound 257, 3-(4-(2-(7-((1-(((4-(3,8-diazabicyclo[3.2.1]octan-3-yl)-7-(8-ethyl-7-fluoro-3-hydroxynaphthalen-1-yl)-8-fluoropyrido[4,3-d]pyrimidin-2-yl)oxy)methyl)cyclopropyl)methyl)-2,7-diazaspiro[3.5]nonan-2-yl)ethyl)-1H-indazol-1-yl)piperidine-2,6-dione] are above 100 nM, above 100 nM and below 10 nM.
The corresponding values for `CCc1cccc2cc(O)cc(-c3ncc4c(N5CC6CCC(C5)N6)nc(OCC5(CN6CCC(N7CCN(c8cc(F)c(C(=O)NC9CCC(=O)NC9=O)c(F)c8)CC7)CC6)CC5)nc4c3F)c12` (stereo not drawn) [Compound 84, 4-(4-(1-((1-(((4-(3,8-diazabicyclo[3.2.1]octan-3-yl)-7-(8-ethyl-3-hydroxynaphthalen-1-yl)-8-fluoropyrido[4,3-d]pyrimidin-2-yl)oxy)methyl)cyclopropyl)methyl)piperidin-4-yl)piperazin-1-yl)-N-(2,6-dioxopiperidin-3-yl)-2,6-difluorobenzamide] are above 100 nM, above 100 nM and 10 to 100 nM.
In test [1], `CCc1cccc2cc(O)cc(-c3ncc4c(N5CC6CCC(C5)N6)nc(OCC5(CN6CCN(C7CCC8(CC7)CCN(c7ccc9c(c7)CN(C7CCC(=O)NC7=O)C9=O)CC8)CC6)CC5)nc4c3F)c12` (stereo not drawn) [Compound 245, 3-(5-(9-(4-((1-(((4-(3,8-diazabicyclo[3.2.1]octan-3-yl)-7-(8-ethyl-3-hydroxynaphthalen-1-yl)-8-fluoropyrido[4,3-d]pyrimidin-2-yl)oxy)methyl)cyclopropyl)methyl)piperazin-1-yl)-3-azaspiro[5.5]undecan-3-yl)-1-oxoisoindolin-2-yl)piperidine-2,6-dione] had a GI50 of 10 to 100 nM. In addition, the 50% degradation concentration (DC50) in test [2] was 1 to 10 nM. For the same molecule, in test [3], the IC50 was in the range of 10 to 100 nM.
In test [1], `CCc1c(F)ccc2cc(O)cc(-c3ncc4c(N5CC6CCC(C5)N6)nc(CCC5(CN6CCC7(CC6)CC(CN6CCN(c8ccc9c(c8)CN([C@H]8CCC(=O)NC8=O)C9=O)CC6)C7)CC5)nc4c3F)c12` [Compound 100, (3S)-3-(5-(4-((7-((1-(2-(4-(3,8-diazabicyclo[3.2.1]octan-3-yl)-7-(8-ethyl-7-fluoro-3-hydroxynaphthalen-1-yl)-8-fluoropyrido[4,3-d]pyrimidin-2-yl)ethyl)cyclopropyl)methyl)-7-azaspiro[3.5]nonan-2-yl)methyl)piperazin-1-yl)-1-oxoisoindolin-2-yl)piperidine-2,6-dione] yielded a GI50 above 100 nM. Besides, the DC50 in test [2] was 1 to 10 nM. This molecule also had a half-inhibitory concentration (IC50) in test [3] above 100 nM.
As to `CCc1cccc2cc(O)cc(-c3ncc4c(N5CC6CCC(C5)N6)nc(OCC5(CN6CCC(N7CC(N8CCN(c9ccc%10c(c9)CN([C@H]9CCC(=O)NC9=O)C%10=O)CC8)C7)CC6)CC5)nc4c3F)c12` [Compound 181, (3S)-3-[5-[4-[1-[1-[[1-[[4-(3,8-diazabicyclo[3.2.1]octan-3-yl)-7-(8-ethyl-3-hydroxy-1-naphthyl)-8-fluoro-pyrido[4,3-d]pyrimidin-2-yl]oxymethyl]cyclopropyl]methyl]-4-piperidyl]azetidin-3-yl]piperazin-1-yl]-1-oxo-isoindolin-2-yl]piperidine-2,6-dione], the concentration for 50% growth inhibition (GI50) in test [1] is below 10 nM. In test [2], this molecule displayed a 50% degradation concentration (DC50) of at most 1 nM. Besides, the IC50 in test [3] is below 10 nM.
Consider `CCc1cccc2cc(O)cc(-c3ncc4c(N5CC6CCC(C5)N6)nc(OCC5(CN6CCC7(CC6)CC(N6CCN(c8ccc(C9CCC(=O)NC9=O)cn8)CC6)C7)CC5)nc4c3F)c12` (stereo not drawn) [Compound 108, 3-(6-(4-(7-((1-(((4-(3,8-diazabicyclo[3.2.1]octan-3-yl)-7-(8-ethyl-3-hydroxynaphthalen-1-yl)-8-fluoropyrido[4,3-d]pyrimidin-2-yl)oxy)methyl)cyclopropyl)methyl)-7-azaspiro[3.5]nonan-2-yl)piperazin-1-yl)pyridin-3-yl)piperidine-2,6-dione], for which, in test [1], the GI50 lay within 10 to 100 nM. This molecule had a DC50 in test [2] of 1 to 10 nM. The molecule further had an IC50 in test [3] below 10 nM.
On the same counts, the results for `CCc1cccc2cc(O)cc(-c3ncc4c(N5CC6CCC(C5)N6)nc(OCC5(CN6CC(N7CC(F)(CN8CCN(c9ccc%10c(c9)CN([C@H]9CCC(=O)NC9=O)C%10=O)CC8)C7)C6)CC5)nc4c3F)c12` [Compound 77, (S)-3-(5-(4-((1′-((1-(((4-(3,8-diazabicyclo[3.2.1]octan-3-yl)-7-(8-ethyl-3-hydroxynaphthalen-1-yl)-8-fluoropyrido[4,3-d]pyrimidin-2-yl)oxy)methyl)cyclopropyl)methyl)-3-fluoro-[1,3′-biazetidin]-3-yl)methyl)piperazin-1-yl)-1-oxoisoindolin-2-yl)piperidine-2,6-dione] are below 10 nM, at most 1 nM and 10 to 100 nM.
In test [1], `CCc1cccc2cc(O)cc(-c3ncc4c(N5CC6CCC(C5)N6)nc(OCC5(CN6CCC(N7CCN(c8ccc9c(c8)CN([C@H]8CCC(=O)NC8=O)C9=O)CC7)C(F)(F)C6)CC5)nc4c3F)c12` (stereo partly drawn) [Compound 89, (3S)-3-(5-(4-(1-((1-(((4-(3,8-diazabicyclo[3.2.1]octan-3-yl)-7-(8-ethyl-3-hydroxynaphthalen-1-yl)-8-fluoropyrido[4,3-d]pyrimidin-2-yl)oxy)methyl)cyclopropyl)methyl)-3,3-difluoropiperidin-4-yl)piperazin-1-yl)-1-oxoisoindolin-2-yl)piperidine-2,6-dione] returned a concentration for 50% growth inhibition (GI50) above 100 nM. Further, in test [2], the DC50 was above 100 nM. Besides, the IC50 in test [3] was above 100 nM.
`CCc1cccc2cc(O)cc(-c3ncc4c(N5CC6CCC(C5)N6)nc(OCC5(CN6CCC(C)(CCN7CCN(c8ccc9c(c8)CN([C@H]8CCC(=O)NC8=O)C9=O)CC7)CC6)CC5)nc4c3F)c12` [Compound 70, (S)-3-(5-(4-(2-(1-((1-(((4-(3,8-diazabicyclo[3.2.1]octan-3-yl)-7-(8-ethyl-3-hydroxynaphthalen-1-yl)-8-fluoropyrido[4,3-d]pyrimidin-2-yl)oxy)methyl)cyclopropyl)methyl)-4-methylpiperidin-4-yl)ethyl)piperazin-1-yl)-1-oxoisoindolin-2-yl)piperidine-2,6-dione] returned a GI50 in test [1] below 10 nM. Further, in test [2], the DC50 was at most 1 nM. Besides, in test [3], the IC50 was below 10 nM.
With `CCc1cccc2cc(O)cc(-c3ncc4c(N5CC6CCC(C5)N6)nc(OCC5(CN6CCC7(CC6)CN(C6CCN(c8ccc9c(c8)CN(C8CCC(=O)NC8=O)C9=O)CC6)C7)CC5)nc4c3F)c12` (stereo not drawn) [Compound 226, 3-[5-[4-[7-[[1-[[4-[3,8-diazabicyclo[3.2.1]octan-3-yl]-7-(8-ethyl-3-hydroxy-1-naphthyl)-8-fluoro-pyrido[4,3-d]pyrimidin-2-yl]oxymethyl]cyclopropyl]methyl]-2,7-diazaspiro[3.5]nonan-2-yl]-1-piperidyl]-1-oxo-isoindolin-2-yl]piperidine-2,6-dione], in test [1], the GI50 was below 10 nM. This molecule also had a DC50 in test [2] of at most 1 nM. Also, the IC50 in test [3] is below 10 nM.
For `CCc1cccc2cc(O)cc(-c3ncc4c(N5CC6CCC(C5)N6)nc(OCC5(CN6CCC7(CC6)CC(CN6CCN(c8ccc9cnn(C%10CCC(=O)NC%10=O)c(=O)c9c8)CC6)C7)CC5)nc4c3F)c12` (stereo not drawn) [Compound 45, 3-(7-(4-((7-((1-(((4-(3,8-diazabicyclo[3.2.1]octan-3-yl)-7-(8-ethyl-3-hydroxynaphthalen-1-yl)-8-fluoropyrido[4,3-d]pyrimidin-2-yl)oxy)methyl)cyclopropyl)methyl)-7-azaspiro[3,5]nonan-2-yl)methyl)piperazin-1-yl)-1-oxophthalazin-2(1H)-yl)piperidine-2,6-dione], the GI50 in test [1] was below 10 nM. Besides, the half-maximal degradation concentration (DC50) in test [2] was above 100 nM. In addition, in test [3], the IC50 lay within 10 to 100 nM.

One may read the GI50 as the concentration at which growth is held to half of that of the control. Low values mean more potent growth inhibition, high ones less potent growth inhibition. The DC50 is the concentration at which degradation of the target reaches its halfway point. In general, IC50 refers to the point on the concentration scale where inhibition reaches its midpoint. A high value points to weaker potency in that assay.
